Measured values: patent US9273042B2, “5-amino[1,4]thiazines as BACE 1 inhibitors” (Hoffmann-La Roche Inc., priority 2012, dated 2016)

biological target: BACE1 (Homo sapiens (Human), UniProt P56817); test: Cellular Aβ-lowering assay (Abeta 40 AlphaLISA); assay type: cell-based; conditions: HEK293 APP cells, 18-20 hrs incubation, Aβ 40 in culture supernatants; read-out: BACE1 cell act. Aβ40, IC50
Procedure: Cellular Aβ-Lowering Assay:
The Abeta 40 AlphaLISA Assay can be used. The HEK293 APP cells were seeded in 96 well Microtiter plates in cell culture medium (Iscove's, plus 10% (v/v) fetal bovine serum, penicillin/streptomycin) to about 80% confluency and the compounds were added at a 3× concentration in ⅓ volume of culture medium (final DMSO concentration was kept at 1% v/v). After 18-20 hrs incubation at 37° C. and 5% CO2 in a humidified incubator, the culture supernatants were harvested for the determination of Aβ 40 concentrations using Perkin-Elmer Human Amyloid beta 1-40 (high specificity) Kit (Cat#AL275C).
In a Perkin-Elmer White Optiplate-384 (Cat#6007290), 2 ul culture supernatants were combined with 2 μl of a 10× AlphaLISA Anti-hAβAcceptor beads+Biotinylated Antibody Anti-Aβ 1-40 Mix (50 μg/mL/5 nM). After 1 hour room temperature incubation, 16 μl of a 1.25× preparation of Streptavidin (SA) Donor beads (25 μg/mL) were added and incubated for 30 minutes in the Dark. Light Emission at 615 nm was then recorded using EnVision-Alpha Reader. Levels of Aβ 40 in the culture supernatants were calculated as percentage of maximum signal (cells treated with 1% DMSO without inhibitor). The IC50 values were calculated using the Excel XLfit software.

BACE1, sequence (P56817 46-501): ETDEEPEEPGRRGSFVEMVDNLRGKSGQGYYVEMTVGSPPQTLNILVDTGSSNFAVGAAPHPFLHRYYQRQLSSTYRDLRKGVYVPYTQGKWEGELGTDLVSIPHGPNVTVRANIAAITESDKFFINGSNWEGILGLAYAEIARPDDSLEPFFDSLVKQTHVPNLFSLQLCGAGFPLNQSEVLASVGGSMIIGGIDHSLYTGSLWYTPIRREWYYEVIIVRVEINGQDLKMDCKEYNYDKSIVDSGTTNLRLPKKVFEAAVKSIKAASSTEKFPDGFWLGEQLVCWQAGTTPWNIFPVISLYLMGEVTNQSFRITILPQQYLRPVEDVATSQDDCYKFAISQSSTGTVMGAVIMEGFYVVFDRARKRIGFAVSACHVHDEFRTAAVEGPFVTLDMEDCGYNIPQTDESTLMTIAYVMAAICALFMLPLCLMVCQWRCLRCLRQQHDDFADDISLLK

Compound | IC50
C[C@@]1(c2cc(NC(=O)c3ccc(C#N)cn3)ccc2F)CSCC(N)=N1 [Example 1, (R)—N-(3-(5-amino-3-methyl-3,6-dihydro-2H-1,4-thiazin-3-yl)-4-fluorophenyl)-5-cyanopicolinamide] | 11 nM
C[C@@]1(c2cc(NC(=O)c3ccc(C#N)cn3)ccc2F)CS(=O)(=O)CC(N)=N1 [Example 2, 5-Cyano-pyridine-2-carboxylic acid [3-((R)-5-amino-3-methyl-1,1-dioxo-1,2,3,6-tetrahydro-1λ6-[1,4]thiazin-3-yl)-4-fluoro-phenyl]-amide] | 8.2 nM
C[C@@]1(c2cc(NC(=O)c3ccc(Cl)cn3)ccc2F)CS(=O)(=O)CC(N)=N1 [Example 3, 5-Chloro-pyridine-2-carboxylic acid [3-((R)-5-amino-3-methyl-1,1-dioxo-1,2,3,6-tetrahydro-1λ6-[1,4]thiazin-3-yl)-4-fluoro-phenyl]-amide] | 6.1 nM

Compounds with a lower IC50, results first:

IC50 | Compound
5.7 nM | C[C@@]1(c2cc(NC(=O)c3ccc(OC(F)F)cn3)ccc2F)CS(=O)(=O)CC(N)=N1 [Example 4, 5-Difluoromethoxy-pyridine-2-carboxylic acid [3-((R)-5-amino-3-methyl-1,1-dioxo-1,2,3,6-tetrahydro-1λ6-[1,4]thiazin-3-yl)-4-fluoro-phenyl]-amide]
0.2 nM | CC1(C)C(N)=N[C@](C)(c2cc(NC(=O)c3ccc(C#N)cn3)ccc2F)CS1(=O)=O [Example 6, 5-Cyano-pyridine-2-carboxylic acid [3-((R)-5-amino-3,6,6-trimethyl-1,1-dioxo-1,2,3,6-tetrahydro-1λ6-[1,4]thiazin-3-yl)-4-fluoro-phenyl]-amide]
1 nM | C[C@@]1(c2cc(NC(=O)c3ccc(C#N)cn3)ccc2F)CS(=O)(=O)C2(CCCC2)C(N)=N1 [Example 9, 5-Cyano-pyridine-2-carboxylic acid [3-((R)-10-amino-8-methyl-6,6-dioxo-6λ6-thia-9-aza-spiro[4.5]dec-9-en-8-yl)-4-fluoro-phenyl]-amide]
